Test results: patent publication US20240228488A1 (TAKEDA PHARMACEUTICAL COMPANY LIMITED, priority 2021, published 2024)
pEC50: −log10 of the molar value.

Molecular target: human activated kallikrein enzyme (Homo sapiens, UniProt P03952)
Test: Plasma kallikrein inhibition, fluorogenic PFR-AMC substrate, 500 pM activated kallikrein format
Type: biochemical
Conditions: 500 pM activated kallikrein, 300 uM PFR-AMC, 30 min preincubation, 10 min reaction; read-out: Primary Dose Response Assay: Average EC50
Description: Compounds were evaluated for inhibition of the human activated kallikrein enzyme in two formats of an assay employing a fluorogenic peptide substrate. In one assay format, the concentrations of reagents were as follows: 20 mM Tris pH 7.5, 1 mM EDTA, 150 mM sodium chloride, 0.1% PEG-400, 0.1% Triton X-100, 500 pM activated kallikrein enzyme, 300 uM Pro-Phe-Arg-7-amido-4-methylcoumarin (PFR-AMC) substrate. Prior to reaction initiation with substrate, enzyme and inhibitors were preincubated for 30 min at room temperature. After initiation with substrate, reactions were incubated for 10 min at room temperature and fluorescence emission at 460 nm from 380 nm excitation measured with a microplate reader. In another assay format, the concentrations of reagents were as follows: 20 mM Tris pH 7.5, 1 mM EDTA, 150 mM sodium chloride, 0.1% PEG-400, 0.1% Triton X-100, 5 pM activated kallikrein enzyme, 300 uM PFR-AMC substrate. Prior to reaction initiation with substrate, enzyme and inhibitors were preincubated for 30 min at room temperature. After initiation with substrate, reactions were incubated for 18 hr at room temperature and fluorescence emission at 460 nm from 380 nm excitation measured with a microplate reader.
Table 49 provides the results of the assay in the format with 500 pM activated kallikrein assay. For the compounds listed in Table 49, the EC50 values are reported according to the following ranges: A≤1.0 nM; 1.0 nM<B≤10 nM; 10 nM<C≤100 nM; 100 nM<D≤1000 nM; 1000 nM<E≤6000 nM; 6000 nM<F.
Table 51 provides comparative plasma kallikrein inhibition potency in the assay format with 500 pM activated kallikrein assay (described in detail in a preceding example). For the compounds listed in Table 51, the EC50 values are reported according to the following ranges: A≤1.0 nM; 1.0 nM<B≤10 nM; 10 nM<C≤100 nM; 100 nM<D≤1000 nM; 1000 nM<E≤6000 nM; 6000 nM<F.

Chain of human activated kallikrein enzyme (P03952 391-638 limits assumed): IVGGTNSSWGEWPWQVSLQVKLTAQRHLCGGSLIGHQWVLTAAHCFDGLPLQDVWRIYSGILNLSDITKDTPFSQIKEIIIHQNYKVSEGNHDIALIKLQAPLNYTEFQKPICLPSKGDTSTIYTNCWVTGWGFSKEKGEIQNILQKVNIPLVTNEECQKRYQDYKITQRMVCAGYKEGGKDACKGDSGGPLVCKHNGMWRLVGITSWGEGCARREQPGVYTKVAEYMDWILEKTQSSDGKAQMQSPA
Chain of human activated kallikrein enzyme (P03952 20-390 partner limits assumed): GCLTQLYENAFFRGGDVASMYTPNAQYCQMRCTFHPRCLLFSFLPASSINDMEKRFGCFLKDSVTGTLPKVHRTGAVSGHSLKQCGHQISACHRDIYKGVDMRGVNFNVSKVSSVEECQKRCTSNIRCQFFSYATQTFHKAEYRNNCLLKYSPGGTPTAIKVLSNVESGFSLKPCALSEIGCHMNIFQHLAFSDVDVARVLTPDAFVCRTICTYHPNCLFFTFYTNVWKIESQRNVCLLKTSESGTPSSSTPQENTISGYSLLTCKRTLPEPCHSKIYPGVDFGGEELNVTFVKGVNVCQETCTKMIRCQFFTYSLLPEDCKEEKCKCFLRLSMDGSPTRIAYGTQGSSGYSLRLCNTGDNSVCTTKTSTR

| SMILES | pEC50 |
| --- | --- |
| COc1ccc(C#N)c([C@H]2C[C@@H]2C(=O)Nc2cc(NCc3cn4cc(C5CC5)ccc4n3)ncn2)c1F (racemic) [Example 314, rac-(1S*,2S*)-2-(6-cyano-2-fluoro-3-methoxyphenyl)-N-(6-(((6-cyclopropylimidazo[1,2-a]pyridin-2-yl)methyl)amino)pyrimidin-4-yl)cyclopropane-1-carboxamide] | 7.00 to 8.00 |
| O=C(O)COc1ccc(Cl)cc1[C@H]1C[C@@H]1C(=O)Nc1cc(NCc2cn3cc(C4CC4)ccc3n2)ncn1 (racemic) [Example 315, rac-3-(4-chloro-2-((1S*,2S*)-2-((6-(((6-cyclopropylimidazo[1,2-a]pyridin-2-yl)methyl)amino)pyrimidin-4-yl)carbamoyl)cyclopropyl)phenoxy)acetic acid] | 6.00 to 7.00 |
| O=C(Nc1cc(NCc2cn3cc(C4CC4)ccc3n2)ncn1)[C@H]1C[C@@H]1c1cc(Cl)ccc1-n1cnnn1 (racemic) [Example 316, rac-(1S*,2S*)-2-(5-chloro-2-(1H-tetrazol-1-yl)phenyl)-N-(6-(((6-cyclopropylimidazo[1,2-a]pyridin-2-yl)methyl)amino)pyrimidin-4-yl)cyclopropane-1-carboxamide] | 8.00 to 9.00 |
| CN1C(=O)CN(c2cc(C3CC3)cn3cc(CNc4cc(NC(=O)C5CC5(F)c5cccc(Cl)c5)ncn4)nc23)C1=O (racemic) [Example 329, rac-2-(3-chlorophenyl)-N-(6-(((6-cyclopropyl-8-(3-methyl-2,4-dioxoimidazolidin-1-yl)imidazo[1,2-a]pyridin-2-yl)methyl)amino)pyrimidin-4-yl)-2-fluorocyclopropane-1-carboxamide] | 8.00 to 9.00 |
| N#Cc1ccc(Cl)cc1[C@H]1C[C@@H]1C(=O)Nc1cc(NCc2cn3cc(C4CC4)cc(N4CCCC4=O)c3n2)ncn1 (racemic) [Example 334] | > 9.00 |
| O=C(Nc1cncc(NCc2cn3cc(C4CC4)ccc3n2)n1)[C@H]1C[C@@H]1c1cccc(Cl)c1 (racemic) [Example 345, (rac-(1S*,2S*))-2-(3-chlorophenyl)-N-(6-(((6-cyclopropylimidazo[1,2-a]pyridin-2-yl)methyl)amino)pyrazin-2-yl)cyclopropane-1-carboxamide] | 7.00 to 8.00 |
| O=C(Nc1nccc(NCc2cn3cc(C4CC4)ccc3n2)n1)[C@H]1C[C@@H]1c1cccc(Cl)c1 (racemic) [Example 346, (rac-(1S*,2S*))-2-(3-chlorophenyl)-N-(4-(((6-cyclopropylimidazo[1,2-a]pyridin-2-yl)methyl)amino)pyrimidin-2-yl)cyclopropane-1-carboxamide] | 8.00 to 9.00 |
| O=C(Nc1ccnc(NCc2cn3cc(C4CC4)ccc3n2)n1)[C@H]1C[C@@H]1c1cccc(Cl)c1 (racemic) [Example 347, (rac-(1S*,2S*))-2-(3-chlorophenyl)-N-(2-(((6-cyclopropylimidazo[1,2-a]pyridin-2-yl)methyl)amino)pyrimidin-4-yl)cyclopropane-1-carboxamide] | 7.00 to 8.00 |
| O=C(Nc1cnnc(NCc2cn3cc(C4CC4)ccc3n2)c1)[C@H]1C[C@@H]1c1cccc(Cl)c1 (racemic) [Example 348, (rac-(1S*,2S*))-2-(3-chlorophenyl)-N-(6-(((6-cyclopropylimidazo[1,2-a]pyridin-2-yl)methyl)amino)pyridazin-4-yl)cyclopropane-1-carboxamide] | 8.00 to 9.00 |
| O=C(Nc1cc(NCc2cn3cc(C4CC4)ccc3n2)ncn1)[C@H]1C[C@@H]1c1cccc(C2CC2)c1 (racemic) [Example 351, rac-(1S*,2S*)—N-(6-(((6-cyclopropylimidazo[1,2-a]pyridin-2-yl)methyl)amino)pyrimidin-4-yl)-2-(3-cyclopropylphenyl)cyclopropane-1-carboxamide] | < 5.22 |
| O=C(Nc1cc(NCc2cn3cc(C4CC4)cc(-n4cnnc4)c3n2)ncn1)[C@H]1C[C@@H]1c1cccc(Cl)c1 (racemic) [Example 405, rac-(1S*,2S*)-2-(3-chlorophenyl)-N-(6-(((6-cyclopropyl-8-(4H-1,2,4-triazol-4-yl)imidazo[1,2-a]pyridin-2-yl)methyl)amino)pyrimidin-4-yl)cyclopropane-1-carboxamide] | > 9.00 |
